Measurements: patent publication US20080063628A1, “METHODS TO PROMOTE CELL DIFFERENTIATION” (priority 2006, published 2008)

Key:
[1] = tested on: late passage (P14) pancreatic-derived stromal cells; experiment: Trichostatin A 24 h time course, gene expression by Real-Time PCR (Example 3); assay type: cell-based, human; conditions: 2.5 μM
Procedure: Human pancreatic-derived stromal cells were obtained according to the methods described in Example 13. Cells were seeded into a 24-well tissue culture plate at a density of 5000/cm^2 and cultured in DMEM containing 10% fetal bovine serum under standard cell culture conditions until confluent. After the cells reached confluency, 2.5 μM trichostatin A, diluted in DMSO and medium was added to the wells. Parallel cultures were treated with an equivalent concentration of DMSO as a vehicle control. RNA samples were obtained from treated cultures at 30 minutes, 1.5 hours, 3 hours, 6 hours, 12 hours and 24 hours following the addition of trichostatin A or DMSO. Culture medium was removed, the cells were washed with PBS, and RLT lysis buffer with β-mercaptoethanol (Qiagen) was added. RNA was purified using the RNeasy Mini Kit (Qiagen). RNA quantity and quality were determined using a spectrophotometer, and CDNA was made using the iScript cDNA synthesis kit (BioRad).
The expression levels of Sox17, HNF-3 beta, Pdx-1, insulin, and glucagon were determined by Real-Time PCR. Samples of 20 ng cDNA were used in each reaction, which was performed on the Applied Biosystems 7500 according to the methods described in Example 15. Data were analyzed using the accompanying software. Human pancreas cDNA was included as a positive control, and results were normalized against GAPDH expression levels.
(§1) Real-time PCR amplifcation and quantitative analysis. Unless otherwise stated, all reagents were purchased from Applied Biosystems. Real-time PCR reactions were performed using the ABI PRISM™ 7500 Sequence Detection System. TAQMAN™ FAST UNIVERSAL PCR MASTER MIX™ (ABI, CA) was used with 20 ng of reverse transcribed RNA in a total reaction volume of 20 μl. Each cDNA sample was run in duplicate to allow correction of pipetting errors. Primers and FAM-labeled TAQMAN™ probes were used at concentrations of 200 nM. The level of expression for each target gene was normalized using the pre-developed Applied Biosystem's human glyceraldehyde-3-phosphate dehydrogenase (GAPDH) endogenous control kit. Primers and probes were designed using either ABI PRISM PRIMER EXPRESS™ software or a pre-developed ABI gene analysis kit. For each gene, either one of the primers or the probe were designed to be exon-boundary spanning. This eliminated the possibility of the primers/probe binding to any genomic DNA present. The primer and probe sets are listed as follows: Pdx-1 (Hs00426216), Insulin (Hs00355773), glucagon (Hs00174967), and FoxA2 (HNF 3-beta) (Hs00232764). The remaining primers were designed using the PRIMERS program (ABI, CA). After an initial 95° C. incubation for 20 sec, samples were cycled 40 times in two stages: a denaturation step at 95° C. for 3 sec, followed by an annealing/extension step at 60° C. for 30 sec.
(§2) For each primer/probe set, a cycle time value was determined as the cycle number at which the fluorescence intensity of the PCR reaction reached a specific value in the middle of the exponential region of amplification. An increase in expression of a gene corresponded to a decrease in the number of cycles required for the fluorescence intensity to reach this value.

[2] = tested on: late passage (P11) pancreatic-derived stromal cell line; experiment: 6 hour trichostatin A treatment, gene expression by RT-PCR (Example 10); assay type: cell-based, human; conditions: for HNF-3 beta gene expression / Insulin gene expression / Pdx-1 gene expression / glucagon gene expression: 5 μM for 6 h then removed
Procedure: Amniotic fluid derived cells or pancreas-derived cells were seeded into 24-well tissue culture plates at a density of 5000/cm^2 and cultured in AMNIOMAX (Invitrogen) or DMEM with 10% FBS respectively under standard cell culture conditions until confluency was reached. Upon reaching confluency, amniotic fluid derived cells were treated with 1.25 μM trichostatin A and pancreas-derived stromal cells were treated with 5.0 μM trichostatin A. The media was changed 6 hours following the addition of trichostatin A and cultures were maintained for the remainder of the experiment. Several cell lines obtained from amniotic fluid (see Example 14) and pancreas (see Example 13) were tested.
RNA samples were obtained at the time the trichostatin A was removed and 24 hours from the start of the experiment. The culture media was removed and cells were washed with PBS then collected in RLT Lysis Buffer with β-mercaptoethanol (Qiagen). RNA was purified using the RNeasy Mini Kit (Qiagen) and RNA quantity and quality was determined using a spectrophotometer. cDNA was made using the iScript cDNA synthesis kit (BioRad). Human pancreas cDNA was included as a control. Results were normalized against GAPDH expression levels.
The expression levels of Sox17, HNF-3 beta, Pdx-1, Insulin, and Gata-1 were analyzed in amniotic-derived cells while the expression levels of glucagon, insulin, PDX-1 and HNF-3 beta were analyzed in pancreas-derived cells. 20 ng of cDNA was used in each RT-PCR reaction, which was performed on the Applied Biosystems 7500, according to the methods described in Example 15. Data was analyzed using the accompanying software.
as §1, §2

[3] = 5.0 μM, following 6 h treatment

With CC(/C=C/C(=O)NO)=C\[C@@H](C)C(=O)c1ccc(N(C)C)cc1 [trichostatin A] the HNF-3 beta gene expression ([1]; 0.5 h) was “nd (not detectable at >40 cycles by RT-PCR)”, the Insulin gene expression ([1]; 0.5 h) was “nd (not detectable at >40 cycles by RT-PCR)” and the PDX-1 gene expression ([1]; 0.5 h) was “nd (not detectable at >40 cycles by RT-PCR)”. For the same molecule, the Sox17 gene expression ([1]; 0.5 h) was “+ (detectable between 35 and 40 cycles by RT-PCR)”, the glucagon gene expression ([1]; 0.5 h) was “nd (not detectable at >40 cycles by RT-PCR)” and the HNF-3 beta gene expression ([1]; 1.5 h) was “nd (not detectable at >40 cycles by RT-PCR)”. The Insulin gene expression ([1]; 1.5 h) was “nd (not detectable at >40 cycles by RT-PCR)”, the PDX-1 gene expression ([1]; 1.5 h) was “nd (not detectable at >40 cycles by RT-PCR)” and the Sox17 gene expression ([1]; 1.5 h) was “nd (not detectable at >40 cycles by RT-PCR)”. The glucagon gene expression ([1]; 1.5 h) was “nd (not detectable at >40 cycles by RT-PCR)”, the HNF-3 beta gene expression ([1]; 3 h) was “nd (not detectable at >40 cycles by RT-PCR)” and the Insulin gene expression ([1]; 3 h) was “nd (not detectable at >40 cycles by RT-PCR)”. The PDX-1 gene expression ([1]; 3 h) was “nd (not detectable at >40 cycles by RT-PCR)”, the Sox17 gene expression ([1]; 3 h) was “+ (detectable between 35 and 40 cycles by RT-PCR)” and the glucagon gene expression ([1]; 3 h) was “nd (not detectable at >40 cycles by RT-PCR)”. The “Sox-17 RT-PCR detection cycle” value ([1]; 3 hours) was over 35 cycles, the HNF-3 beta gene expression ([1]; 6 h) was “+ (detectable between 35 and 40 cycles by RT-PCR)” and the Insulin gene expression ([1]; 6 h) was “nd (not detectable at >40 cycles by RT-PCR)”. The PDX-1 gene expression ([1]; 6 h) was “nd (not detectable at >40 cycles by RT-PCR)”, the Sox17 gene expression ([1]; 6 h) was “+ (detectable between 35 and 40 cycles by RT-PCR)” and the glucagon gene expression ([1]; 6 h) was “nd (not detectable at >40 cycles by RT-PCR)”. The “HNF-3 beta RT-PCR detection cycle” value ([1]; 6 hours) was over 35 cycles, the HNF-3 beta gene expression ([1]; 12 h) was “+ (detectable between 35 and 40 cycles by RT-PCR)” and the Insulin gene expression ([1]; 12 h) was “nd (not detectable at >40 cycles by RT-PCR)”. For the same molecule, the PDX-1 gene expression ([1]; 12 h) was “+ (detectable between 35 and 40 cycles by RT-PCR)”, the Sox17 gene expression ([1]; 12 h) was “+ (detectable between 35 and 40 cycles by RT-PCR)” and the glucagon gene expression ([1]; 12 h) was “nd (not detectable at >40 cycles by RT-PCR)”. The “Pdx-1 RT-PCR detection cycle” value ([1]; 12 hours) was over 35 cycles, the HNF-3 beta gene expression ([1]; 24 h) was “+++ (detectable at less than 35 cycles by RT-PCR with std error less than 0.9)” and the Insulin gene expression ([1]; 24 h) was “nd (not detectable at >40 cycles by RT-PCR)”. The PDX-1 gene expression ([1]; 24 h) was “+++ (detectable at less than 35 cycles by RT-PCR with std error less than 0.9)”, the Sox17 gene expression ([1]; 24 h) was “+++ (detectable at less than 35 cycles by RT-PCR with std error less than 0.9)” and the glucagon gene expression ([1]; 24 h) was “+ (detectable between 35 and 40 cycles by RT-PCR)”. For the same molecule, the “HNF-3 beta RT-PCR detection cycle” value ([1]; 24 hours) was under 35 cycles, the “HNF-3 beta gene expression relative to human pancreas” value ([1]; 24 hours) was ~0.075 % of human pancreas and the “Pdx-1 RT-PCR detection cycle” value ([1]; 24 hours) was under 35 cycles. The “Pdx-1 gene expression relative to human pancreas” value ([1]; 24 hours) was ~0.2 % of human pancreas levels, the “Sox-17 RT-PCR detection cycle” value ([1]; 24 hours) was under 35 cycles and the “Sox-17 gene expression relative to human pancreas” value ([1]; 24 hours) was ~3 % of human pancreas levels. The “glucagon RT-PCR detection cycle” value ([1]; 24 hours) was 35-40 cycles, the “HNF-3 beta gene expression” value ([2]; 6 hrs) was “+ (detectable between 35 and 40 cycles by RT-PCR)” and the Insulin gene expression ([2]; 6 hrs) was “nd (not detectable at >40 cycles by RT-PCR)”. For the same molecule, the Pdx-1 gene expression ([2]; 6 hrs) was “+ (detectable between 35 and 40 cycles by RT-PCR)”, the glucagon gene expression ([2]; 6 hrs) was “+ (detectable between 35 and 40 cycles by RT-PCR)” and the “HNF-3 beta gene expression” value ([2]; 24 hrs) was “nd (not detectable at >40 cycles by RT-PCR)”. For the same molecule, the Insulin gene expression ([2]; 24 hrs) was “nd (not detectable at >40 cycles by RT-PCR)”, the Pdx-1 gene expression ([2]; 24 hrs) was “nd (not detectable at >40 cycles by RT-PCR)” and the glucagon gene expression ([2]; 24 hrs) was “+ (detectable between 35 and 40 cycles by RT-PCR)”. For the same molecule, the “HNF-3 beta RT-PCR detection cycle” value [2, 3] was 36 cycles, the “Pdx-1 RT-PCR detection cycle” value [2, 3] was 37 cycles and the “glucagon RT-PCR detection cycle” value [2, 3] was 37 cycles. For the same molecule, the “glucagon RT-PCR detection cycle” value ([2]; 5.0 μM, following the removal) was 35 cycles.
